# Results reported in patent publication US9464076B2, “Benzothiophene derivative” (Daiichi Sankyo Company, Limited, priority 2013, dated 2016).
# Counter-ions that a name gives are not always drawn.
# Target: PDE10A (Homo sapiens (Human), UniProt Q9Y233)
# Assay: Measurement of PDE10A inhibitory activity-2 (PDE10A fraction prepared from MOLT-4 cells)
# Type: biochemical
# Details: PDE10A fraction from MOLT-4 cells (peak around 250 mM NaCl)
# Experimental: A human acute lymphoblastic lymphoma T cell line MOLT-4 (which can be purchased under ATCC No. CRL-1582 from ATCC) was cultured in an RPMI1640 medium containing 10% fetal bovine serum to obtain 5×10^8 MOLT-4 cells. The cells were recovered by centrifugation and suspended in 10 ml of buffer solution A (25 mM Tris-HCl, 5 mM 2-mercaptoethanol, 2 mM benzamidine, 2 mM EDTA, and 0.1 mM 4-(2-aminoethyl)benzenesulfonyl hydrochloride, pH 7.5). The cells were homogenized using a Polytron homogenizer and centrifuged (4° C., 25,000 g, 10 minutes). Then, the supernatant was further ultracentrifuged (4° C., 100,000 g, 60 minutes). The obtained supernatant was filtered through a 0.2 μm filter to obtain a soluble fraction.
# HiTrap Q HP column (5 ml×2, GE Healthcare Japan Corp.) equilibrated with buffer solution A was charged with the obtained soluble fraction. Phosphodiesterase was eluted with 300 ml of buffer solution A containing a linear gradient solution of 0 to 0.8 M NaCl to recover sixty 5-ml fractions. Each fraction was tested for cAMP-metabolizing phosphodiesterase activity.
# On the other hand, total RNA was prepared from Jurkat cells, one type of human T cell, and similarly subjected to RT-PCR. […] Eur J Biochem. 1999, 266 (3), 1118-2 has reported that PDE10A from the rat striatum and testis is eluted as an active peak centered around 250 mM NaCl.
# For these reasons, this fraction was used as a solution for the evaluation of PDE10A inhibitory activity. The obtained solution was used to calculate the inhibitory activity (IC50) of a test compound in the same way as in the aforementioned test.
# PDE10A, sequence (Q9Y233 whole entry): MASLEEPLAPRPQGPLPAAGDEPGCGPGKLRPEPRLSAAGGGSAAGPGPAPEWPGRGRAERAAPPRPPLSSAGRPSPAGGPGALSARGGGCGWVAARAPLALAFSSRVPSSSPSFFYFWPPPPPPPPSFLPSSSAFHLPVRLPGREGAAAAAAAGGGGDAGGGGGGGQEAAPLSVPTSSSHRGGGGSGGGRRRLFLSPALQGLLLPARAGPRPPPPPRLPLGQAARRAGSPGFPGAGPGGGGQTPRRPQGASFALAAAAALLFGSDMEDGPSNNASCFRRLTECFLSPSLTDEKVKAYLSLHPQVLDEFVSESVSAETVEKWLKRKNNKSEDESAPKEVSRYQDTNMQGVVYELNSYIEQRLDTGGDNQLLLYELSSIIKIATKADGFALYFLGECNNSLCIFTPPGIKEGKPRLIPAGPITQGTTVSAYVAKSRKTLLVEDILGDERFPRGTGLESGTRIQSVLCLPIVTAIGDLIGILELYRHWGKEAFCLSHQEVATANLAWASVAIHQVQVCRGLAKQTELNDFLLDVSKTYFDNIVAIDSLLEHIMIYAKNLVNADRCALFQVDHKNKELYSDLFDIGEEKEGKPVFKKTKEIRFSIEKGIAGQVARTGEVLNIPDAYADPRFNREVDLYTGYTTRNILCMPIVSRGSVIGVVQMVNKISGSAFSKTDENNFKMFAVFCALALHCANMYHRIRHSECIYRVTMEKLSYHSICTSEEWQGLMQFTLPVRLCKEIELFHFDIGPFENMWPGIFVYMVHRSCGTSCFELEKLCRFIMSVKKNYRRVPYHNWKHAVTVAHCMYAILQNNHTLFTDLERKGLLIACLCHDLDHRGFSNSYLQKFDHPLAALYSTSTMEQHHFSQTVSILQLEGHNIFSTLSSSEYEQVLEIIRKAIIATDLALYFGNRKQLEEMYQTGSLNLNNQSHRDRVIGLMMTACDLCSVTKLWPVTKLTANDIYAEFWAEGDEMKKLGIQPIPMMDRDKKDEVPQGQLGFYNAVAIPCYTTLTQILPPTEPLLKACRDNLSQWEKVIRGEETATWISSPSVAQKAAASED
row,SMILES,IC50
1,"COCc1ccc(C(C)=O)c2sc(C(=O)Nc3cc(Cl)c4ccccc4n3)c(C)c12 [Example 53, 7-Acetyl-N-(4-chloroquinolin-2-yl)-4-(methoxymethyl)-3-methylbenzo[b]thiophene-2-carboxamide]",18 nM
2,"Cc1c(C(=O)Nc2cc(C(C)(C)O)c3ccccc3n2)sc2c(C(=O)C3CC3)cccc12 [Example 19, 7-(Cyclopropylcarbonyl)-N-(4-(2-hydroxypropan-2-yl)quinolin-2-yl)-3-methylbenzo[b]thiophene-2-carboxamide]",0.92 nM
3,"CC(=O)c1ccc(C(C)=O)c2c(C)c(C(=O)Nc3cc(CN4CCC(O)C4)c4ccccc4n3)sc12 (stereo not shown) [Example 51, 4,7-Diacetyl-N-(4-((3-hydroxypyrrolidin-1-yl)methyl)quinolin-2-yl)-3-methylbenzo[b]thiophene-2-carboxamide]",1.5 nM
4,"CCCCC(=O)c1cccc2c(C)c(C(=O)Nc3cc(C(C)(C)O)c4ccccc4n3)sc12 [Example 20, N-(4-(2-Hydroxypropan-2-yl)quinolin-2-yl)-3-methyl-7-pentanoylbenzo[b]thiophene-2-carboxamide]",10 nM
5,"Cc1c(C(=O)Nc2cc(C(C)(C)O)c3ccccc3n2)sc2c(C(=O)C(C)C)cccc12 [Example 18, N-(4-(2-Hydroxypropan-2-yl)quinolin-2-yl)-7-isobutyryl-3-methylbenzo[b]thiophene-2-carboxamide]",0.47 nM
6,"Cc1c(C(=O)Nc2cc(C(C)(C)O)c3ccccc3n2)sc2c(C(=O)CC(C)C)cccc12 [Example 23, N-(4-(2-Hydroxypropan-2-yl)quinolin-2-yl)-3-methyl-7-(3-methylbutanoyl)benzo[b]thiophene-2-carboxamide]",10 nM
7,"CCCC(=O)c1cccc2c(C)c(C(=O)Nc3cc(C(C)(C)O)c4ccccc4n3)sc12 [Example 17, 7-Butyryl-N-(4-(2-hydroxypropan-2-yl)quinolin-2-yl)-3-methylbenzo[b]thiophene-2-carboxamide]",2.6 nM
8,"COCc1ccc(C(C)=O)c2sc(C(=O)Nc3ccc4c(C(=O)N5CCC5)cccc4n3)c(C)c12 [Example 98, 7-Acetyl-N-(5-((azetidin-1-yl)carbonyl)quinolin-2-yl)-4-(methoxymethyl)-3-methylbenzo[b]thiophene-2-carboxamide]",0.21 nM
9,"COCc1ccc(C(=O)C(C)(C)C)c2sc(C(=O)Nc3cc(CN4CC[C@@H](O)C4)c4ccccc4n3)c(C)c12 [Example 58, (R)—N-(4-((3-Hydroxypyrrolidin-1-yl)methyl)quinolin-2-yl)-4-(methoxymethyl)-3-methyl-7-pivaloylbenzo[b]thiophene-2-carboxamide dihydrochloride]",0.085 nM
10,"CC(=O)c1ccc(CO)c2c(C)c(C(=O)Nc3ccc4c(CO)cccc4n3)sc12 [Example 114, 7-Acetyl-4-(hydroxymethyl)-N-(5-(hydroxymethyl)quinolin-2-yl)-3-methylbenzo[b]thiophene-2-carboxamide]",2.1 nM
11,"COCc1ccc(C(C)=O)c2sc(C(=O)Nc3ccc4c(C(=O)NN5CCCC5)cccc4n3)c(C)c12 [Example 94, 2-(7-Acetyl-4-(methoxymethyl)-3-methylbenzo[b]thiophene-2-carboxamido)-N-(pyrrolidin-1-yl)quinoline-5-carboxamide]",1.2 nM
12,"COCc1ccc(C(C)=O)c2sc(C(=O)Nc3cc(N4CCOCC4)c4ccccc4n3)c(C)c12 [Example 56, 7-Acetyl-4-(methoxymethyl)-3-methyl-N-(4-morpholinoquinolin-2-yl)benzo[b]thiophene-2-carboxamide]",1.1 nM
13,"CC(=O)c1ccc(C(C)=O)c2c(C)c(C(=O)Nc3cc(CN(C)C(C)=O)c4ccccc4n3)sc12 [Example 15, 4,7-Diacetyl-3-methyl-N-(4-((N-methylacetamido)methyl)quinolin-2-yl)benzo[b]thiophene-2-carboxamide]",2.3 nM
14,"COCc1ccc(C(C)=O)c2sc(C(=O)Nc3ccc4c(C(C)(C)O)cccc4n3)c(C)c12 [Example 74, 7-Acetyl-N-(5-(2-hydroxypropan-2-yl)quinolin-2-yl)-4-(methoxymethyl)-3-methylbenzo[b]thiophene-2-carboxamide]",3 nM
15,"COCc1ccc(C(C)=O)c2sc(C(=O)Nc3ccc4c(C)cccc4n3)c(C)c12 [Example 108, 7-Acetyl-4-(methoxymethyl)-3-methyl-N-(5-methylquinolin-2-yl)benzo[b]thiophene-2-carboxamide]",1.6 nM
16,"COCc1cccc2nc(NC(=O)c3sc4c(C(C)=O)ccc(CO)c4c3C)ccc12 [Example 113, 7-Acetyl-4-(hydroxymethyl)-N-(5-(methoxymethyl)quinolin-2-yl)-3-methylbenzo[b]thiophene-2-carboxamide]",0.12 nM
17,"COCc1ccc(C(C)=O)c2sc(C(=O)Nc3ccc4c(C(C)=O)cccc4n3)c(C)c12 [Example 75, 7-Acetyl-N-(5-acetylquinolin-2-yl)-4-(methoxymethyl)-3-methylbenzo[b]thiophene-2-carboxamide]",0.91 nM
18,"CCC(=O)c1ccc(C(C)=O)c2sc(C(=O)Nc3cc(C(C)(C)O)c4ccccc4n3)c(C)c12 [Example 10, 7-Acetyl-N-(4-(2-hydroxypropan-2-yl)quinolin-2-yl)-3-methyl-4-propionylbenzo[b]thiophene-2-carboxamide]",20 nM
19,"CC(=O)c1ccc(C(C)=O)c2c(C)c(C(=O)Nc3cc(C(C)O)c4ccccc4n3)sc12 (stereo not shown) [Example 13, 4,7-Diacetyl-N-(4-(1-hydroxyethyl)quinolin-2-yl)-3-methylbenzo[b]thiophene-2-carboxamide]",2 nM
20,"COCc1ccc(C(C)=O)c2sc(C(=O)Nc3ccc4c(COC(=O)[C@@H](N)CO)cccc4n3)c(C)c12 [Example 91, (S)-(2-(7-Acetyl-4-(methoxymethyl)-3-methylbenzo[b]thiophene-2-carboxamido)quinolin-5-yl)methyl-2-amino-3-hydroxypropanoate]",0.74 nM
21,"COCc1ccc(C(C)=O)c2sc(C(=O)Nc3cc(CN4CCC(O)C4)c4ccccc4n3)c(C)c12 (stereo not shown) [Example 35, 7-Acetyl-N-(4-((3-hydroxypyrrolidin-1-yl)methyl)quinolin-2-yl)-4-(methoxymethyl)-3-methylbenzo[b]thiophene-2-carboxamide]",0.29 nM
22,"CCOCc1ccc(C(C)=O)c2sc(C(=O)Nc3cc(C(C)(C)O)c4ccccc4n3)c(C)c12 [Example 29, 7-Acetyl-4-(ethoxymethyl)-N-(4-(2-hydroxypropan-2-yl)quinolin-2-yl)-3-methylbenzo[b]thiophene-2-carboxamide]",3 nM
23,"COCc1ccc(C(C)=O)c2sc(C(=O)Nc3cc(C(C)O)c4ccccc4n3)c(C)c12 (stereo not shown) [Example 33, 7-Acetyl-N-(4-(1-hydroxyethyl)quinolin-2-yl)-4-(methoxymethyl)-3-methylbenzo[b]thiophene-2-carboxamide hydrochloride]",0.9 nM
24,"COCc1ccc(C(C)=O)c2sc(C(=O)Nc3ccc4c(COC(F)F)cccc4n3)c(C)c12 [Example 73, 7-Acetyl-N-(5-((difluoromethoxy)methyl)quinolin-2-yl)-4-(methoxymethyl)-3-methylbenzo[b]thiophene-2-carboxamide hydrochloride]",2 nM
25,"COC(C)c1ccc(C(C)=O)c2sc(C(=O)Nc3cc(C(C)(C)O)c4ccccc4n3)c(C)c12 (stereo not shown) [Example 32, 7-Acetyl-N-(4-(2-hydroxypropan-2-yl)quinolin-2-yl)-4-(1-methoxyethyl)-3-methylbenzo[b]thiophene-2-carboxamide]",9.1 nM
